Article doi:10.1101/2021.08.02.454818v1 (biorxiv, 2021)

Molecular target: T1, CdRelQ (Clostridioides difficile, UniProt A0A9R0BI07)
T1 sequence (A0A9R0BI07 1-270): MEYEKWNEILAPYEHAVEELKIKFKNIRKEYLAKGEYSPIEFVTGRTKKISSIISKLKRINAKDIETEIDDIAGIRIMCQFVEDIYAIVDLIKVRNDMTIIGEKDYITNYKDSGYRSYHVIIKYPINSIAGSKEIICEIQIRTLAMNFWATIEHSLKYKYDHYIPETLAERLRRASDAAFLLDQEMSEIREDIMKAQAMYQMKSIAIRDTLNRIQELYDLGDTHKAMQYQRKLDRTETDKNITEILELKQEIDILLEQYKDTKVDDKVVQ
Experiment: isothermal titration calorimetry, single-binding-site model

Row | SMILES | Kd [µM]
1 | Nc1nc2c(ncn2[C@@H]2O[C@H](COP(=O)(O)OP(=O)(O)O)[C@@H](O)[C@H]2O)c(=O)[nH]1 [GDP] | 490
2 | Nc1nc2c(ncn2[C@@H]2O[C@H](COP(=O)(O)OP(=O)(O)OP(=O)(O)O)[C@@H](O)[C@H]2O)c(=O)[nH]1 [GTP] | 20.5
